Laboratory results: PMC10905675, “INX-315, a Selective CDK2 Inhibitor, Induces Cell Cycle Arrest and Senescence in Solid Tumors” (Cancer Discovery, 2023)

Experiments:
[1] = biological target: T1, DDR2 (Homo sapiens, UniProt Q16832); test: SelectScreen LanthaScreen Binding; details: INX-0315 at 100nM
T1 construct: purchased Thermo Fisher Scientific SelectScreen (plus Nanosyn / Reaction Biology for CDK/cyclin lines)
Source text: (§1) INX-315 was first evaluated in the SelectScreen Biochemical Kinase Profiling at Thermo Fisher Scientific (Madison, WI). The primary screen consisted of INX-315 dosed at a single concentration of 100 nmol/L in 1% DMSO across each platform within the SelectScreen array of assays, LanthaScreen Eu Kinase Binding Assay; AdaptaScreen; and Z'LyteScreen using preestablished conditions at Thermo Fisher Scientific as shown in Supplementary Table S2. […] The follow-up screen consisted of 10-point dose–response curves for INX-315 from 1 µmol/L to 0.0495 nmol/L.

[2] = biological target: T2, AMPK (A2/B2/G2) (Homo sapiens, UniProt P54646); test: SelectScreen LanthaScreen Binding; details: INX-0315 at 100nM
T2 construct: purchased Thermo Fisher Scientific SelectScreen (plus Nanosyn / Reaction Biology for CDK/cyclin lines)
Source text: as §1

[3] = biological target: T3, KIT D820E (Homo sapiens, UniProt P10721, D820E); test: SelectScreen LanthaScreen Binding; details: INX-0315 at 100nM
T3 construct: purchased Thermo Fisher Scientific SelectScreen (plus Nanosyn / Reaction Biology for CDK/cyclin lines)
Source text: as §1

[4] = biological target: T4, STK17A (DRAK1) (Homo sapiens, UniProt Q9UEE5); test: SelectScreen LanthaScreen Binding; details: INX-0315 at 100nM
T4 construct: purchased Thermo Fisher Scientific SelectScreen (plus Nanosyn / Reaction Biology for CDK/cyclin lines)
Source text: as §1

[5] = biological target: T5, CDK14 (PFTK1)/cyclin Y (Homo sapiens, UniProt O94921); test: SelectScreen LanthaScreen Binding; details: INX-0315 at 100nM
T5 construct: purchased Thermo Fisher Scientific SelectScreen (plus Nanosyn / Reaction Biology for CDK/cyclin lines)
Source text: as §1

[6] = biological target: T6, MAP3K14 (NIK) (Homo sapiens, UniProt Q99558); test: SelectScreen LanthaScreen Binding; details: INX-0315 at 100nM
T6 construct: purchased Thermo Fisher Scientific SelectScreen (plus Nanosyn / Reaction Biology for CDK/cyclin lines)
Source text: as §1

[7] = biological target: T7, STK17B (DRAK2) (Homo sapiens, UniProt O94768); test: SelectScreen LanthaScreen Binding; details: INX-0315 at 100nM
T7 construct: purchased Thermo Fisher Scientific SelectScreen (plus Nanosyn / Reaction Biology for CDK/cyclin lines)
Source text: as §1

[8] = biological target: T8, MLCK (MLCK2) (Homo sapiens, UniProt Q32MK0); test: SelectScreen LanthaScreen Binding; details: INX-0315 at 100nM
T8 construct: purchased Thermo Fisher Scientific SelectScreen (plus Nanosyn / Reaction Biology for CDK/cyclin lines)
Source text: as §1

[9] = biological target: T9, MAP3K2 (MEKK2) (Homo sapiens, UniProt Q9Y2U5); test: SelectScreen LanthaScreen Binding; details: INX-0315 at 100nM
T9 construct: purchased Thermo Fisher Scientific SelectScreen (plus Nanosyn / Reaction Biology for CDK/cyclin lines)
Source text: as §1

[10] = biological target: T10, AMPK (A1/B1/G3) (Homo sapiens, UniProt Q13131); test: SelectScreen LanthaScreen Binding; details: INX-0315 at 100nM
T10 construct: purchased Thermo Fisher Scientific SelectScreen (plus Nanosyn / Reaction Biology for CDK/cyclin lines)
Source text: as §1

[11] = biological target: T11, MYLK4 (Homo sapiens, UniProt Q86YV6); test: SelectScreen LanthaScreen Binding; details: INX-0315 at 100nM
T11 construct: purchased Thermo Fisher Scientific SelectScreen (plus Nanosyn / Reaction Biology for CDK/cyclin lines)
Source text: as §1

[12] = biological target: T12, CDK9/cyclin K (Homo sapiens, UniProt P50750); test: SelectScreen LanthaScreen Binding; details: INX-0315 at 100nM
T12 construct: purchased Thermo Fisher Scientific SelectScreen (plus Nanosyn / Reaction Biology for CDK/cyclin lines)
Source text: as §1

[13] = biological target: T13, STK32B (YANK2) (Homo sapiens, UniProt Q9NY57); test: SelectScreen LanthaScreen Binding; details: INX-0315 at 100nM
T13 construct: purchased Thermo Fisher Scientific SelectScreen (plus Nanosyn / Reaction Biology for CDK/cyclin lines)
Source text: as §1

[14] = biological target: T14, MAP2K5 (MEK5) (Homo sapiens, UniProt Q13163); test: SelectScreen LanthaScreen Binding; details: INX-0315 at 100nM
T14 construct: purchased Thermo Fisher Scientific SelectScreen (plus Nanosyn / Reaction Biology for CDK/cyclin lines)
Source text: as §1

[15] = biological target: T15, TGFBR2 (Homo sapiens, UniProt P37173); test: SelectScreen LanthaScreen Binding; details: INX-0315 at 100nM
T15 construct: purchased Thermo Fisher Scientific SelectScreen (plus Nanosyn / Reaction Biology for CDK/cyclin lines)
Source text: as §1

[16] = biological target: T16, CDK16 (PCTK1)/cyclin Y (Homo sapiens, UniProt Q00536); test: SelectScreen LanthaScreen Binding; details: INX-0315 at 100nM
T16 construct: purchased Thermo Fisher Scientific SelectScreen (plus Nanosyn / Reaction Biology for CDK/cyclin lines)
Source text: as §1

[17] = biological target: T17, MAP3K7/MAP3K7IP1 (TAK1-TAB1) (Homo sapiens, UniProt O43318); test: SelectScreen LanthaScreen Binding; details: INX-0315 at 100nM
T17 construct: purchased Thermo Fisher Scientific SelectScreen (plus Nanosyn / Reaction Biology for CDK/cyclin lines)
Source text: as §1

[18] = biological target: T18, STK39 (STLK3) (Homo sapiens, UniProt Q9UEW8); test: SelectScreen LanthaScreen Binding; details: INX-0315 at 100nM
T18 construct: purchased Thermo Fisher Scientific SelectScreen (plus Nanosyn / Reaction Biology for CDK/cyclin lines)
Source text: as §1

[19] = biological target: T19, PRKACB (PRKAC beta) (Homo sapiens, UniProt P22694); test: SelectScreen LanthaScreen Binding; details: INX-0315 at 100nM
T19 construct: purchased Thermo Fisher Scientific SelectScreen (plus Nanosyn / Reaction Biology for CDK/cyclin lines)
Source text: as §1

[20] = biological target: T20, ICK (Homo sapiens, UniProt Q9UPZ9); test: SelectScreen LanthaScreen Binding; details: INX-0315 at 100nM
T20 construct: purchased Thermo Fisher Scientific SelectScreen (plus Nanosyn / Reaction Biology for CDK/cyclin lines)
Source text: as §1

[21] = biological target: T21, WNK2 (Homo sapiens, UniProt Q9Y3S1); test: SelectScreen LanthaScreen Binding; details: INX-0315 at 100nM
T21 construct: purchased Thermo Fisher Scientific SelectScreen (plus Nanosyn / Reaction Biology for CDK/cyclin lines)
Source text: as §1

[22] = biological target: T22, ABL1 H396P (Homo sapiens, UniProt P00519, H396P); test: SelectScreen LanthaScreen Binding; details: INX-0315 at 100nM
T22 construct: purchased Thermo Fisher Scientific SelectScreen (plus Nanosyn / Reaction Biology for CDK/cyclin lines)
Source text: as §1

[23] = biological target: T23, ACVRL1 (ALK1) (Homo sapiens, UniProt P37023); test: SelectScreen LanthaScreen Binding; details: INX-0315 at 100nM
T23 construct: purchased Thermo Fisher Scientific SelectScreen (plus Nanosyn / Reaction Biology for CDK/cyclin lines)
Source text: as §1

[24] = biological target: T24, MAP3K5 (ASK1) (Homo sapiens, UniProt Q99683); test: SelectScreen LanthaScreen Binding; details: INX-0315 at 100nM
T24 construct: purchased Thermo Fisher Scientific SelectScreen (plus Nanosyn / Reaction Biology for CDK/cyclin lines)
Source text: as §1

[25] = biological target: T25, ALK C1156Y (Homo sapiens, UniProt Q9UM73, C1156Y); test: SelectScreen LanthaScreen Binding; details: INX-0315 at 100nM
T25 construct: purchased Thermo Fisher Scientific SelectScreen (plus Nanosyn / Reaction Biology for CDK/cyclin lines)
Source text: as §1

[26] = biological target: T26, CDK2/cyclin A1 (Homo sapiens, UniProt P24941); test: NanoBRET live cell target engagement; type: binding
T26 construct: host or cells: HEK293
Protocol: (§2) Reaction Bio (Malvern, PA) conducted NanoBRET assays utilizing Promega NanoLuc technology with two replicates per experiment. The CDK2/E1 and CDK1/B1 values are the average of two separate experiments.
(§3) HEK293 cells were transfected using Opti-MEM without serum containing ratios of 9.0 µg/mL of Transfection Carrier DNA, 1.0 µg/mL of NanoLuc fusion vector DNA and 1 mL of Opti-MEM without phenol red. 30 µL of FuGENE HD transfection reagent was added to each milliliter of DNA mixture to form lipid:DNA complex. After incubation for 20 minutes at room temperature, 1 part lipid/DNA complex was added to 20 parts HEK293 cells in suspension. Cells were then plated and incubated overnight before being trypsinized and resuspended at 2 × 10^5 cells/mL. NanoBRET tracer reagent was added to cells at a ratio of 1 part tracer to 20 parts cell suspension. Cells were added to a 384-well plate and incubated for 1 hour. Plates were removed and incubated at room temperature for 15 minutes to equilibrate before 3x complete substrate plus inhibitor was added. After 2–3 minutes of incubation at room temperature, donor and acceptor wavelengths (460 nm and 600 nm, respectively) were measured using an Envision 2104 plate reader.

[27] = biological target: T27, CDK1/cyclin B1 (Homo sapiens, UniProt P06493); test: NanoBRET live cell target engagement; type: binding
T27 construct: purchased Millipore 14-450M
Protocol: as §2, §3

[28] = biological target: T28, CDK2/cyclin E1 (Homo sapiens, UniProt P24941); test: NanoBRET live cell target engagement; type: binding
T28 construct: purchased Millipore 14-475
Protocol: as §2, §3

[29] = biological target: T29, CDK9/cyclin T1 (Homo sapiens, UniProt P50750); test: NanoBRET live cell target engagement; type: binding
T29 construct: purchased Carna 04-110
Protocol: as §2, §3

[30] = NanoBRET intracellular IC50 ratio

T29 sequence (P50750 whole entry): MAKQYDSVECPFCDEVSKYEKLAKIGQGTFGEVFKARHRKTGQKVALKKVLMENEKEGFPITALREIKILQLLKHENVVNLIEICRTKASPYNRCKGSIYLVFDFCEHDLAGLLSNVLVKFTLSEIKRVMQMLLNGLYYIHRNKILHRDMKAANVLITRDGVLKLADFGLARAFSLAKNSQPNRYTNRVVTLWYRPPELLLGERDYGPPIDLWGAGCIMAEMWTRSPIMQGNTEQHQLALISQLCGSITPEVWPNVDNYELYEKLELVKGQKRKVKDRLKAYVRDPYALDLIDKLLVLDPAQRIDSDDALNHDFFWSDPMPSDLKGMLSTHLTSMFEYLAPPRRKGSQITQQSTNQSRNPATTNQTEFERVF
T29 sequence (O60563 whole entry partner): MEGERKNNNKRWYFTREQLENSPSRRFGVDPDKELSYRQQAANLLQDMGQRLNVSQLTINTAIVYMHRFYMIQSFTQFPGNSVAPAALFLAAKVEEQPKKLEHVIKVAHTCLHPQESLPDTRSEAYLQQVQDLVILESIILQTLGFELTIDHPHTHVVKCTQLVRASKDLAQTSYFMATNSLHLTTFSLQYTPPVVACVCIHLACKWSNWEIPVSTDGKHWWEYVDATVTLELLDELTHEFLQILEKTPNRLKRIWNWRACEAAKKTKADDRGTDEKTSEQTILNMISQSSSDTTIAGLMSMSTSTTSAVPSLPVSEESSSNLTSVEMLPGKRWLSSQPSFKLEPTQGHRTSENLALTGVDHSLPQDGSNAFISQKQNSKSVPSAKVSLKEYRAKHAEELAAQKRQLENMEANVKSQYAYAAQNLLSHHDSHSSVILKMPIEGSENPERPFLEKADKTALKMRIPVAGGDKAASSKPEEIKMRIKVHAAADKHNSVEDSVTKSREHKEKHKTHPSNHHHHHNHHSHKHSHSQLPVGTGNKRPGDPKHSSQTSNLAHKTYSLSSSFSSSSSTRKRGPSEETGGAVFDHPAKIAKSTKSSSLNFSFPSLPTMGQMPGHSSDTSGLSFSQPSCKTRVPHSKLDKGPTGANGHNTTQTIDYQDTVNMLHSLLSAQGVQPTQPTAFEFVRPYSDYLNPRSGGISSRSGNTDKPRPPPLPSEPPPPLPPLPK
T27 sequence (P06493 whole entry): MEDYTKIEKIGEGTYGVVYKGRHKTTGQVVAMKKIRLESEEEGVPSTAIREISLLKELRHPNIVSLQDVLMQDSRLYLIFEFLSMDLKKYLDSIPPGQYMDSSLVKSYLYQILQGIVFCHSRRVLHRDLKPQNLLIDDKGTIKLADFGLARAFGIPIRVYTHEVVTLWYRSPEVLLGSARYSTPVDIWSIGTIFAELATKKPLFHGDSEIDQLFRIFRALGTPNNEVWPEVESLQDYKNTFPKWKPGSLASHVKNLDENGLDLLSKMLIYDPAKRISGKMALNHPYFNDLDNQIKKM
T27 sequence (P14635 whole entry partner): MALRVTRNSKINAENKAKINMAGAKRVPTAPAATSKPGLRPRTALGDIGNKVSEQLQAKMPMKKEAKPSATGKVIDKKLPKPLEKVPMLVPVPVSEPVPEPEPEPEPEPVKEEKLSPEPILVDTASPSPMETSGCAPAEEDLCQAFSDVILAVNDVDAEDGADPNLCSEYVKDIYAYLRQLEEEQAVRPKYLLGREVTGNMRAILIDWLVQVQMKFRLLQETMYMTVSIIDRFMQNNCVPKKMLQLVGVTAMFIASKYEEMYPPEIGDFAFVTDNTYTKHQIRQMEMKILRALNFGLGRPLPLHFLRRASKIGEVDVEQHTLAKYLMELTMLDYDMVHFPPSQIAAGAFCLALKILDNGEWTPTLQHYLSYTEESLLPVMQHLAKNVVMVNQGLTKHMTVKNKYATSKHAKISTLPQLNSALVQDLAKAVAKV
T4 sequence (Q9UEE5 whole entry): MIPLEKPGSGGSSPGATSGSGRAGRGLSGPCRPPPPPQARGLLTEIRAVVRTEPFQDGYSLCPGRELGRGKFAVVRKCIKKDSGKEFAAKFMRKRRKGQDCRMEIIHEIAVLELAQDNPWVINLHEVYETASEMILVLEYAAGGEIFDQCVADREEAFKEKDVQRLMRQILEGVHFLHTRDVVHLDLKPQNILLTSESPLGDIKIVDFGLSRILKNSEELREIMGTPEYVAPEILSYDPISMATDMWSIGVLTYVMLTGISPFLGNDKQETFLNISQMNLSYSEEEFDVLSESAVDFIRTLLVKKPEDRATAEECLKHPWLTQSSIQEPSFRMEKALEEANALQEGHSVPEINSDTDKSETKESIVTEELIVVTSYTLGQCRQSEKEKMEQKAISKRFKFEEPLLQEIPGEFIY
T7 sequence (O94768 whole entry): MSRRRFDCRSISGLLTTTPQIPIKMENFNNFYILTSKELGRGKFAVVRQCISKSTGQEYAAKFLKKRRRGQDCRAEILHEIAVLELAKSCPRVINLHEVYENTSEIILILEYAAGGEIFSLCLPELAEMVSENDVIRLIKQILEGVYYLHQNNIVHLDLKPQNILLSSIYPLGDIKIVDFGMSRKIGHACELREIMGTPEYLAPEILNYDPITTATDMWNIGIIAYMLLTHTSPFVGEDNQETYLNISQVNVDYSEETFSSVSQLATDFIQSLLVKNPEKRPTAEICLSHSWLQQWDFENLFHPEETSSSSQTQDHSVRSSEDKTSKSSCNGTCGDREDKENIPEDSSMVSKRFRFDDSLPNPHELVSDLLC
T16 sequence (Q00536 whole entry): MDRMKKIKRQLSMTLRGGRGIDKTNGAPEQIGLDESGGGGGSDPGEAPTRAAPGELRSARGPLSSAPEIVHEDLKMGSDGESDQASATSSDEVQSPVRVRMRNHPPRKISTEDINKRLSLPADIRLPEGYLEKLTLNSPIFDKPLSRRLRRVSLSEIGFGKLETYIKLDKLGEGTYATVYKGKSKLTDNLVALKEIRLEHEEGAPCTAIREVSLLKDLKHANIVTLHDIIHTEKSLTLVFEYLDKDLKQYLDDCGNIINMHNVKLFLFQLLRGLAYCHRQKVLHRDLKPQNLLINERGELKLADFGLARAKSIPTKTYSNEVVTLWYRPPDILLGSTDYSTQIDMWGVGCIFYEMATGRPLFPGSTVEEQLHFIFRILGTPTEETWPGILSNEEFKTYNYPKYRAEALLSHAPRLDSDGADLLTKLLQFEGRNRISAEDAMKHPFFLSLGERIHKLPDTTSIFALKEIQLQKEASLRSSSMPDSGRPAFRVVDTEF
T16 sequence (Q8ND76 whole entry partner): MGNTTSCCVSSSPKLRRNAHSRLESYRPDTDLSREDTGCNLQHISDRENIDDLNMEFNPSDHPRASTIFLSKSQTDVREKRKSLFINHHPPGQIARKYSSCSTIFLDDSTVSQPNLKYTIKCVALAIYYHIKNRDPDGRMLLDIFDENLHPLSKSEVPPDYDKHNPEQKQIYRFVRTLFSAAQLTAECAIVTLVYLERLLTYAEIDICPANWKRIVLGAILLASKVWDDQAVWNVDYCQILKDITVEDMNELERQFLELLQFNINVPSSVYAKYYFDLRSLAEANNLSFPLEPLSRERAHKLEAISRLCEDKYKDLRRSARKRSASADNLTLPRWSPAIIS
T6 sequence (Q99558 whole entry): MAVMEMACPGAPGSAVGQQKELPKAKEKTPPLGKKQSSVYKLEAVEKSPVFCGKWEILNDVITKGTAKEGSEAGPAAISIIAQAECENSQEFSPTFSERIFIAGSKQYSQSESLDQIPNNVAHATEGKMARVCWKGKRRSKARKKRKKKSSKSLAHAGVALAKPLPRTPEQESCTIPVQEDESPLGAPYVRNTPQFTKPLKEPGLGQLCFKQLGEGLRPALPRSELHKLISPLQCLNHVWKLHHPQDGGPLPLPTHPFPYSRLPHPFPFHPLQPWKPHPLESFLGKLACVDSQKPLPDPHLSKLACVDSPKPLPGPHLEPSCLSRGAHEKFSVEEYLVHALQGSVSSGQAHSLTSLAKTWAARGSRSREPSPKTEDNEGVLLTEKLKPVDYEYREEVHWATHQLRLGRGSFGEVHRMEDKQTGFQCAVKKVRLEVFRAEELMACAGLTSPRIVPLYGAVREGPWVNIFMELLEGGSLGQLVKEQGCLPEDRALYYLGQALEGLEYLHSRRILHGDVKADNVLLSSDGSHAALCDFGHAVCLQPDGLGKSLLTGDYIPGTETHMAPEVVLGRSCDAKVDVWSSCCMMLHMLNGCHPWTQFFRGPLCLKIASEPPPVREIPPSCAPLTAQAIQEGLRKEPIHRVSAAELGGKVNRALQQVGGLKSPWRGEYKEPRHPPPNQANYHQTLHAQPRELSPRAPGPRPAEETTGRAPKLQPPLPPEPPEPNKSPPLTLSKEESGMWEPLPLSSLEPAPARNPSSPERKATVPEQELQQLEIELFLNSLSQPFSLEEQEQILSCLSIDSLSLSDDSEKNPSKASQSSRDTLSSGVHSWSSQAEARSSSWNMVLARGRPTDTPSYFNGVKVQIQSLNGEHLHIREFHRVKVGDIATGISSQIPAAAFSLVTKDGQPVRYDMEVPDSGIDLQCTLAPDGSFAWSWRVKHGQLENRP
T5 sequence (O94921 whole entry): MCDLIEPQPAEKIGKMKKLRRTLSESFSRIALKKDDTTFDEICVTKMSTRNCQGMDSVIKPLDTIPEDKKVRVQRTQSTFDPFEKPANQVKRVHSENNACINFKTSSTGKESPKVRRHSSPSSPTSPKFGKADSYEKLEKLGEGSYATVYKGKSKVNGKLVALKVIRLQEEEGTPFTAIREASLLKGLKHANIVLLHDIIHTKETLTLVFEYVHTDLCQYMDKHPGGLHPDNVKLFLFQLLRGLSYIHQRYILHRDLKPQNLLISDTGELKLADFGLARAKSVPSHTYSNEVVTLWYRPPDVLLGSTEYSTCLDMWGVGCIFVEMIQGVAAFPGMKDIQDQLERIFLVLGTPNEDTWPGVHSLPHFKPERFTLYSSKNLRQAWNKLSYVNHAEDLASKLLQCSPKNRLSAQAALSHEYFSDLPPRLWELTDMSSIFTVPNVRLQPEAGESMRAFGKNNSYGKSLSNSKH
T5 sequence (Q8ND76 whole entry partner): as the sequence (Q8ND76 whole entry partner) above

For `NS(=O)(=O)c1ccc(Nc2ncc3cc4n(c3n2)C2(CCCCC2)C(=O)NN4)cc1` [INX-315], the inhibition at 0.1 µM [1] was 18%, the inhibition at 0.1 µM [2] was 11% and the inhibition at 0.1 µM [3] was 12%. The inhibition at 0.1 µM [4] was 2%, the inhibition at 0.1 µM [5] was 24% and the inhibition at 0.1 µM [6] was -2%. It also gave an inhibition at 0.1 µM [7] of 4%, an inhibition at 0.1 µM [8] of 5% and an inhibition at 0.1 µM [9] of 12%. The inhibition at 0.1 µM [10] was 19%, the inhibition at 0.1 µM [11] was 20% and the inhibition at 0.1 µM [12] was 38%. For the same compound, the inhibition at 0.1 µM [13] was 3%, the inhibition at 0.1 µM [14] was 27% and the inhibition at 0.1 µM [15] was 7%. It also gave an inhibition at 0.1 µM [16] of 64%, an inhibition at 0.1 µM [17] of 14% and an inhibition at 0.1 µM [18] of 14%. The inhibition at 0.1 µM [19] was 1%, the inhibition at 0.1 µM [20] was 28% and the inhibition at 0.1 µM [21] was -9%. For the same compound, the inhibition at 0.1 µM [22] was 12%, the inhibition at 0.1 µM [23] was 2% and the inhibition at 0.1 µM [24] was 10%. The inhibition at 0.1 µM [25] was 9%, the “Fold vs. CDK2/E1, CDK2/cyclin A1” value [26, 30] was 31 and the IC50 ([26]; NanoBRET, HEK293 cells, value (SD), read-out: intracellular IC50 (nmol/L) CDK2/cyclin A1) was 71 nmol/L. For the same compound, the “Fold vs. CDK2/E1, CDK1/cyclin B1” value [27, 30] was 163, the IC50 ([27]; NanoBRET, HEK293 cells, value (SD), read-out: intracellular IC50 (nmol/L) CDK1/cyclin B1) was 374 nmol/L and the “Fold vs. CDK2/E1, CDK2/cyclin E1” value [28, 30] was 1. For the same compound, the “increase of intracellular IC50 over the biochemical IC50, CDK2/cyclin E1” value ([28]; NanoBRET vs biochemical) was 4 fold, the IC50 ([28]; NanoBRET, HEK293 cells, value (SD), read-out: intracellular IC50 (nmol/L) CDK2/cyclin E1) was 2.3 nmol/L and the “Fold vs. CDK2/E1, CDK9/cyclin T1” value [29, 30] was 1283. It also gave an IC50 ([29]; NanoBRET, HEK293 cells, value (SD), read-out: intracellular IC50 (nmol/L) CDK9/cyclin T1) of 2950 nmol/L.
